Data taken from patent publication US20070088043A1, “Novel HDAC inhibitors” (ORCHID RESEARCH LABORATORIES LIMITED., priority 2005, published 2007).

Columns and labels:
NCIH 460 cells = experiment: Anti-cancer screen (MTT), NCIH460; assay type: cell-based; details: Homo sapiens, NCI-H460, NCIH460 cells, 48 hours, MTT; for GI50: concentration to decrease % growth by 50%; for IC100: concentration to decrease % growth by 100%, read-out: NCIH460 TGI; for LC50: concentration to decrease % growth by 150%
Protocol: (§1) Experimental drugs are screened for anti-cancer activity in three cell lines for their GI50, TGI and LC50 values (using five concentrations for each compound). The cell lines are maintained in DMEM containing 10% fetal bovine serum. 96 well micro titer plates are inoculated with cells in 100 μL for 24 h at 37° C., 5% CO2, 95% air and 100% relative humidity. 5000 HCT 116 cells/well, 5000 NCIH 460 cells/well and 5000 U251 cells/well are plated. A separate plate with these cell lines is also inoculated to determine cell viability before the addition of the compounds (T0).
(§2) Following 24-hour incubation, experimental drugs are added to the 96 well plates. Each plate contains one of the above cell lines and the following in triplicate: five different concentrations (0.01, 0.1, 1, 10 and 100 μM) of four different compounds, appropriate dilutions of a cytotoxic standard and control (untreated) wells. Compounds are dissolved in DMSO to make 20 mM stock solutions on the day of drug addition and frozen at −20° C. Serial dilutions of these 20 mM stock solutions are made in complete growth medium such that 100 μL of these drug solutions in medium, of final concentrations equaling 0.01, 0.1, 1, 10 and 100 μM can be added to the cells in triplicate. Standard drugs whose anti-cancer activity has been well documented and which are regularly used are doxorubicin and SAHA.
(§3) For To measurement, 24 hours after seeding the cells, 10 μL of 3-(4,5-Dimethyl-2-thiazolyl)-2,5-diphenyl-2H-tetrazolium (MTT) solution per well is added and incubation carried out for 3 hours at 37° C., 5% CO2, 95% air and 100% relative humidity, protected from light. Cells incubated with compounds for 48 hours are treated similarly except with the addition of 20 μL MTT solution per well and a subsequent incubation under the same conditions. After 3 hours of MTT incubation, well contents are aspirated carefully followed by addition of 150 μL DMSO per well. Plates are agitated to ensure solution of the formazan crystals in DMSO and absorbance read at 570 nm. […]

HCT 116 cells = experiment: Anti-cancer screen (MTT), HCT116; assay type: cell-based; details: Homo sapiens, HCT-116, HCT116 cells, 48 hours, MTT; for GI50: concentration to decrease % growth by 50%; for IC100: concentration to decrease % growth by 100%, read-out: HCT116 TGI; for LC50: concentration to decrease % growth by 150%
Protocol: as §1, §2, §3

MDAMB231/U251 = experiment: Anti-cancer screen (MTT), MDAMB231/U251; assay type: cell-based; details: MDAMB231/U251 cells, 48 hours; for GI50: concentration to decrease % growth by 50%; for IC100: concentration to decrease % growth by 100%, read-out: MDAMB231/U251 TGI; for LC50: concentration to decrease % growth by 150%
Protocol: as §1, §2, §3

[1] = system: NCIH460, HCT116, MDAMB231/U251; experiment: Anti-cancer screen, mean GI50 over the cell lines; assay type: cell-based; details: in µM
Protocol: as §1, §2, §3

[2] = system: HDAC (Mouse Liver Extract); experiment: Histone Deacetylase (HDAC) Inhibition Assay using Boc-Lys (Ac)-AMC Substrate; assay type: biochemical; details: mouse liver enzyme, NA = No Activity, in % (unit assumed)
Description: HDAC Activitv Screening: Histone Deacetylase (HDAC) Inhibition Assay using Boc-Lys (Ac)-AMC Substrate:
Inhibition of HDAC has been implicated to modulate transcription and to induce apoptosis or differentiation in cancer cells. The fluorometric assay provides a fast and fluorescence based method that eliminates radioactivity, extractions or chromatography, as used in traditional assays. The assay based on two steps. First, the HDAC fluorometric substrate, which comprises an acetylated lysine side chain, is incubated with a sample containing HDAC activity (Mouse Liver Extract). Deacetylation of the substrate sensitizes the substrate, in the second step; treatment with the Trypsin stop solution produces a fluorophore that can be easily analyzed using fluorescence plate reader.
Assay was done in 96 well black microplate and total volume of the assay is 100 ul. Mouse liver enzyme is diluted 1:6 with HDAC buffer. Enzyme cocktail made of 10 ul of diluted enzyme and 30 ul of HDAC buffer. 40 ul of enzyme cocktail dispensed into each well. 10 ul of different concentrations of inhibitor added in to each well, except enzyme control well. Preincubated the plate at 30° C. for 5 minutes. The HDAC reaction is started by adding 50 ul of HDAC substrate (Boc-Lys (Ac)-AMC Substrate) solution. Incubated the plate at 30° C. for 30 minutes. Adding 100 ul of Trypsin stop solution stops the reaction. The plate is incubated again at 30° C. for 20-30 minutes. The release of AMC is monitored by measuring the fluorescence at excitation wavelength of 365 or 360 nm and emission wavelength of 440 or 460 nm. Buffer and substrate alone kept for blank subtraction. (Dennis Wegener et al, Anal. Biochem, 321, 2003, 202-208).

`CC(=O)SCCCCC(=O)N1CCN(CC(=O)Nc2ncc([N+](=O)[O-])s2)CC1` [Example 9] was tested, and the GI50 (NCIH 460 cells) was greater than 100 µM, the IC100 (NCIH 460 cells) was greater than 100 µM and the LC50 (NCIH 460 cells) was greater than 100 µM. It also gave a GI50 (HCT 116 cells) greater than 100 µM, an IC100 (HCT 116 cells) greater than 100 µM and an LC50 (HCT 116 cells) greater than 100 µM. The GI50 (MDAMB231/U251) was greater than 100 µM, the IC100 (MDAMB231/U251) was greater than 100 µM and the LC50 (MDAMB231/U251) was greater than 100 µM. For the same compound, the “Mean GI50” value [1] was greater than 100, the “HDAC Inhibition 1 μM” value [2] was 3.39 and the “HDAC Inhibition 10 μM” value [2] was 23.65.

`Cc1cccc2sc(NC(=O)CN3CCN(C(=O)CCCCCCC(=O)NOCc4ccccc4)CC3)nc12` [Example 40, 8-{4-[2-(4-Methyl-1,3-benzothiazol-2-ylamino)-2-oxoethyl]piperazin-1-yl}-N-hydroxybenzyl-8-oxo octanamide] showed a GI50 (NCIH 460 cells) of 24 µM, an IC100 (NCIH 460 cells) of 85 µM and an LC50 (NCIH 460 cells) greater than 100 µM. For the same compound, the GI50 (HCT 116 cells) was 4.5 µM, the IC100 (HCT 116 cells) was 32 µM and the LC50 (HCT 116 cells) was greater than 100 µM. It also gave a GI50 (MDAMB231/U251) of 0.1 µM, an IC100 (MDAMB231/U251) of 0.5 µM and an LC50 (MDAMB231/U251) greater than 100 µM. The “Mean GI50” value [1] was 9.5 and the “HDAC Inhibition 10 μM” value [2] was 4.1.

For `CC(=O)SCCCCC(=O)N1CCN(CC(=O)Nc2nc3c(C)cccc3s2)CC1` [Example 13, 2-[4-(5-Thioacetylpentanoyl)piperazin-1-yl]-N-(4-methyl-1,3-benzothiazol-2-yl)acetamide], the GI50 (NCIH 460 cells) was greater than 100 µM, the IC100 (NCIH 460 cells) was greater than 100 µM and the LC50 (NCIH 460 cells) was greater than 100 µM. For the same compound, the GI50 (HCT 116 cells) was 6 µM, the IC100 (HCT 116 cells) was greater than 100 µM and the LC50 (HCT 116 cells) was greater than 100 µM. The GI50 (MDAMB231/U251) was 6 µM, the IC100 (MDAMB231/U251) was 30 µM and the LC50 (MDAMB231/U251) was greater than 100 µM. For the same compound, the “Mean GI50” value [1] was greater than 100, the “HDAC Inhibition 1 μM” value [2] was 26.73 and the “HDAC Inhibition 10 μM” value [2] was 55.56.

Work on `CC(=O)SCCCCC(=O)N1CCN(CC(=O)Nc2nc3ccccc3s2)CC1` [Example 8, 2-[4-(5-Thioacetylpentanoyl)piperazin-1-yl]-N-(1,3-benzothiazol-2-yl)acetamide] yielded a GI50 (NCIH 460 cells) of 18 µM, an IC100 (NCIH 460 cells) greater than 100 µM and an LC50 (NCIH 460 cells) greater than 100 µM. The GI50 (HCT 116 cells) was 7 µM, the IC100 (HCT 116 cells) was 80 µM and the LC50 (HCT 116 cells) was greater than 100 µM. For the same compound, the GI50 (MDAMB231/U251) was greater than 100 µM, the IC100 (MDAMB231/U251) was greater than 100 µM and the LC50 (MDAMB231/U251) was greater than 100 µM. The “Mean GI50” value [1] was 12.50, the “HDAC Inhibition 1 μM” value [2] was 31.41 and the “HDAC Inhibition 10 μM” value [2] was 69.85.

`N[C@H](CO)C(=O)NCCCCCC(=O)N1CCN(CC(=O)Nc2nc3ccccc3s2)CC1` [Example 44] gave a GI50 (NCIH 460 cells) greater than 100 µM, an IC100 (NCIH 460 cells) greater than 100 µM and an LC50 (NCIH 460 cells) greater than 100 µM. It also gave a GI50 (HCT 116 cells) greater than 100 µM, an IC100 (HCT 116 cells) greater than 100 µM and an LC50 (HCT 116 cells) greater than 100 µM. It also gave a GI50 (MDAMB231/U251) greater than 100 µM, an IC100 (MDAMB231/U251) greater than 100 µM and an LC50 (MDAMB231/U251) greater than 100 µM. For the same compound, the “Mean GI50” value [1] was greater than 100, the “HDAC Inhibition 1 μM” value [2] was 5.45 and the “HDAC Inhibition 10 μM” value [2] was 1.79.

`CC(=O)NCCCCCC(=O)N1CCN(CC(=O)Nc2nc3ccccc3s2)CC1` [Example 43] gave a GI50 (NCIH 460 cells) greater than 100 µM, an IC100 (NCIH 460 cells) greater than 100 µM and an LC50 (NCIH 460 cells) greater than 100 µM. For the same compound, the GI50 (HCT 116 cells) was 90 µM, the IC100 (HCT 116 cells) was greater than 100 µM and the LC50 (HCT 116 cells) was greater than 100 µM. It also gave a GI50 (MDAMB231/U251) greater than 100 µM, an IC100 (MDAMB231/U251) greater than 100 µM and an LC50 (MDAMB231/U251) greater than 100 µM. For the same compound, the “Mean GI50” value [1] was greater than 100, the “HDAC Inhibition 1 μM” value [2] was 2.61 and the “HDAC Inhibition 10 μM” value [2] was 5.24.

With `CC(=O)SCCCCCC(=O)N1CCN(CC(=O)N2CCOCC2)CC1` [Example 19, 2-[4-(6-Thioacetylhexanoyl)piperazin-1-yl]-N-(morpholine)acetamide] the GI50 (NCIH 460 cells) was greater than 100 µM, the IC100 (NCIH 460 cells) was greater than 100 µM and the LC50 (NCIH 460 cells) was greater than 100 µM. The GI50 (HCT 116 cells) was greater than 100 µM, the IC100 (HCT 116 cells) was greater than 100 µM and the LC50 (HCT 116 cells) was greater than 100 µM. It also gave a GI50 (MDAMB231/U251) of 57 µM, an IC100 (MDAMB231/U251) greater than 100 µM and an LC50 (MDAMB231/U251) greater than 100 µM. For the same compound, the “Mean GI50” value [1] was greater than 100, the “HDAC Inhibition 1 μM” value [2] was 18.82 and the “HDAC Inhibition 10 μM” value [2] was 51.25.

Work on `CC(=O)SCCCCCC(=O)N1CCN(CC(=O)Nc2cccc(F)c2)CC1` [Example 22, 2-[4-(6-Thioacetylhexanoyl)piperazin-1-yl]-N-(6-fluorophenyl-2-yl)acetamide] yielded a GI50 (NCIH 460 cells) greater than 100 µM, an IC100 (NCIH 460 cells) greater than 100 µM and an LC50 (NCIH 460 cells) greater than 100 µM. For the same compound, the GI50 (HCT 116 cells) was 67 µM, the IC100 (HCT 116 cells) was greater than 100 µM and the LC50 (HCT 116 cells) was greater than 100 µM. It also gave a GI50 (MDAMB231/U251) greater than 100 µM, an IC100 (MDAMB231/U251) greater than 100 µM and an LC50 (MDAMB231/U251) greater than 100 µM. The “Mean GI50” value [1] was greater than 100, the “HDAC Inhibition 1 μM” value [2] was 6.0 and the “HDAC Inhibition 10 μM” value [2] was 50.0.
